Experimental data taken from publication PMC5610242, “Stapled peptide inhibitors of RAB25 target context-specific phenotypes in cancer” (Nature Communications, 2017).
Values belong to the molecule of their own block, whether it stands above or below them. Bridge positions count the residues as written; N and C are the ends. Square brackets hold non-standard residues; d marks the D form. Ends that are not written are not given here. Peptide text beside a SMILES is read from it. * marks the point of attachment. FITC = O=C1OC2(c3ccc(O)cc3Oc3cc(O)ccc32)c2ccc(NC(=S)*)cc21; monoethylene glycol = monoethylene glycol moiety; Met(O) = CS(=O)CC[C@H](N)C(=O)O; S5 = C=CCCC[C@](C)(N)C(=O)O; Nle = CCCC[C@H](N)C(=O)O; βAla = NCCC(=O)O

How the values were obtained:
[1] = target: T1, RAB25 (Homo sapiens, UniProt P57735); experiment: Fluorescence polarization binding of FITC-labeled RFP peptides to RAB25; details: FP, 10 nM FITC-ligand, GST-RAB25, FP buffer pH 8.0 with 10 μM GTP, 30 min room temperature; mean with 95% C.I., triplicate; read-out: apparent Kd (95% C.I.) RAB25
T1 construct: GST-RAB25 (1–180) in pET41 Ek/LIC; made in house; host or cells: E. coli BL21
T1 sequence (P57735 1-180): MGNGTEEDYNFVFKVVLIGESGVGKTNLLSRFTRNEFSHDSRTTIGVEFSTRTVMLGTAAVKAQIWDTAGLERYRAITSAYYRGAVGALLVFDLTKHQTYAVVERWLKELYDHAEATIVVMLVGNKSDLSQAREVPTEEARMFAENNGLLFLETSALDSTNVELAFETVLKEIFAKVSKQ
Method: (§1) Fluorescence polarization assays were performed with for GST-RAB25 and GST-RAB11a to quantify binding to FITC-labeled unmodified and stapled RFP peptides. Initial fluorescence polarization measurements for RFP1−RFP13 were made by incubating FITC-RFP peptides (25 nM) with threefold dilutions of a given protein in FP buffer, consisting of 20 mM Tris pH 8.0, 150 mM NaCl, 5 mM MgCl2, 2 mM DTT, 10 μM GTP and 2% glycerol. Dilutions and incubations were performed in 96-well, black flat-bottom plates (Nunc) to a total volume of 100 μL, and equilibrated at room temperature for 30 min. Polarization was measured on a Spetramax-M5 multi-label plate reader (Molecular Devices) with λ ex = 485 nm and λ em = 525 nm. Polarization values were determined using the equation: P = (V − H)/(V + H), where P denotes polarization, V denotes vertical emission intensity and H represents horizontal emission intensity. Fraction bound was calculated using the equilibrium maximum polarization value obtained for a given protein among ligands, to which background-subtracted fluorescence polarization values were internally normalized. Fluorescence polarization measurements for FITC-RFP14, 24, 26, 31, and 32 were performed as detailed above with the exception that 10 nM FITC-ligand was used.

[2] = target: T2, RAB11a (activated Q70L mutant) (Homo sapiens, UniProt P62491, Q70L); experiment: Fluorescence polarization binding of FITC-labeled RFP peptides to RAB11a; details: FP, 10 nM FITC-ligand, GST-RAB11a (1–173, Q70L), FP buffer pH 8.0 with 10 μM GTP, 30 min room temperature; mean with 95% C.I., triplicate; read-out: apparent Kd (95% C.I.) RAB11a
T2 construct: GST-RAB11a (1–173, Q70L mutant) in pGEX5x-1; made in house; host or cells: E. coli BL21
T2 sequence (P62491 1-173 Q70L): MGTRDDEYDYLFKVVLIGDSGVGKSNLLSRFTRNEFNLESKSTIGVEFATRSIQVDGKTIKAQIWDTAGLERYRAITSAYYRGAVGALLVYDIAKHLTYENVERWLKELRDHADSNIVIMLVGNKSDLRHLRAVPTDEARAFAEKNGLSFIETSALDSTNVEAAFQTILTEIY
Method: as §1

[3] = target: T3, H6-RAB25:bio-RFP14 complex (Homo sapiens, UniProt P57735); experiment: ALPHAscreen competitive inhibition of RAB25:RFP14 complex formation; type: binding; details: H6-RAB25 0.2 μM and bio-RFP14 0.2 μM, mean with 95% C.I., triplicate
T3 construct: His6-RAB25 (1–180) in pET28; made in house; host or cells: E. coli BL21
T3 sequence (P57735 1-180): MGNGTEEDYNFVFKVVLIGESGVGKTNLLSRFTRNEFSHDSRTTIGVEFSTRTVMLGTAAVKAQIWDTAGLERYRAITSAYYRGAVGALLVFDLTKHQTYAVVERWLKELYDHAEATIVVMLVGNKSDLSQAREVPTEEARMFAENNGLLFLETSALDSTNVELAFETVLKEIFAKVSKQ

[4] = test system: all cell lines tested (HEY, MCF7, MDA-MB231); experiment: Toxicity seen in wound healing studies; type: cell-based; details: 10 μM
Method: Cells were seeded at a density of 5000–7000 cells for HEY and MDA-MB231 or 15,000 cells for MCF7 on each side of an Ibidi culture insert (Ibidi, Munich, Germany), with a 500 μm separation between each side of the well, and allowed to grow for 24 h to attain a compact monolayer. Cells were pretreated with, or without, RFP peptides (10 μM) or DMSO control for 12 h before removal of the insert, and following removal of the insert cells were incubated in RFP-containing media or DMSO control for the duration of wound closure. Cells were photographed using a Life Technologies EVOS XL Core imaging system 4× or a Nikon DS camera connected to a Nikon Eclipse Ti microscope objective at insert removal (0 h) and when wound closure was complete under control conditions. Experiments were performed in duplicate and a minimum of four fields of the injury were photographed and used for quantification.

[5] = target: T4, GST-RAB11a (1–173, Q70L mutant) (UniProt P62491 1-173, Q70L); experiment: fluorescence polarisation; FITC-peptide 25 nM with threefold dilutions of GST-RAB protein; 20 mM Tris pH 8.0, 150 mM NaCl, 5 mM MgCl2, 2 mM DTT, 10 μM GTP, 2% glycerol; room temperature, 30 min; apparent Kd; details: both partners purified
T4 construct: vector pGEX5x-1; 10 μM GTP in the assay buffer; source: BL21 cells, purified (glutathione sepharose, Superdex 75 gel filtration)
T4 sequence (looked up): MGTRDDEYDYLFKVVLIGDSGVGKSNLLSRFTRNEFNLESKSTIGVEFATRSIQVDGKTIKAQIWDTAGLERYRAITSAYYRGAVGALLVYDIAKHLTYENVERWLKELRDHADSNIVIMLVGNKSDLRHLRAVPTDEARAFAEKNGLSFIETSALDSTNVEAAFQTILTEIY

[6] = target: T5, His6-RAB25 (1–180) (UniProt P57735 1-180); experiment: competition with bio-RFP14 (ALPHAscreen)
T5 chain: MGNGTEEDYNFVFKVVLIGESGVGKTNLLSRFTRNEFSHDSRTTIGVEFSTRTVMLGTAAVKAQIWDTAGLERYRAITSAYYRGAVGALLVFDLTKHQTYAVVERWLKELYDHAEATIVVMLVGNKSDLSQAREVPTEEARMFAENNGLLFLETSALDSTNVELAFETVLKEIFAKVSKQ

[7] = target: T6, His6-RAB25 (1–180) (UniProt P57735 1-180); experiment: AlphaScreen or HTRF; competition: soluble peptide or protein at varied concentration with biotin-RFP14 and H6-RAB25 (0.2 μM each); streptavidin donor and Ni2+-NTA acceptor beads; FP buffer with 0.1% BSA; room temperature; details: both partners purified
T6 construct: RAB25, residues 1-180; vector pET28; also called H6-RAB25; His6-labeled RAB25; source: BL21 cells, purified (Ni-NTA, Superdex 75 gel filtration)
T6 sequence (looked up): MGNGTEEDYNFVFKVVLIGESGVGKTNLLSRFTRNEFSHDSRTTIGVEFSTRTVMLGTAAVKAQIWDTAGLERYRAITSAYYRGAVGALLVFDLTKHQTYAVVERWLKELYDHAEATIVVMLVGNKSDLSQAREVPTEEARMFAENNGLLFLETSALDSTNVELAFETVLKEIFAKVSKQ

Kd [1]: > 5 µM | Kd [2]: > 5 µM | IC50 [3]: 3.3 µM
Molecule: CC[C@H](C)[C@H](NC(=O)[C@H](CCCNC(=N)N)NC(=O)[C@H](C)NC(=O)[C@H](C)NC(=O)[C@]1(C)CCCC=CCCC[C@](C)(NC(=O)[C@H](CC(N)=O)NC(=O)[C@H](CCC(N)=O)NC(=O)[C@H](CC(C)C)NC(=O)[C@H](CCCNC(=N)N)NC(=O)[C@H](Cc2ccccc2)NC(=O)[C@H](CC(N)=O)NC(=O)[C@@H](NC(=O)[C@H](CCCNC(=N)N)NC(=O)CCNC(=O)[C@@H](N)Cc2c[nH]c3ccccc23)[C@@H](C)CC)C(=O)N[C@@H]([C@@H](C)CC)C(=O)N[C@@H](CC(=O)O)C(=O)N[C@@H](CCCNC(=N)N)C(=O)N1)C(=O)N[C@@H](C)C(=O)N[C@@H](CCC(=O)O)C(=O)N[C@H](C(=O)N[C@@H](CC(N)=O)C(=O)N1CCC[C@H]1C(=O)N[C@@H](CO)C(=O)N[C@H](C(=O)N[C@@H](CC(C)C)C(=O)N[C@@H](CCC(=O)O)C(=O)N[C@H](C(=O)N[C@@H](CCCCN)C(N)=O)C(C)C)[C@@H](C)CC)[C@@H](C)O [RFP31] (H-W[βAla]RINFRLQN[S5]IDR[S5]AARIAETNPSILEVK-NH2; staple 11-15)

Molecule: CCCC[C@H](NC(=O)[C@@H](NC(=O)[C@H](CCCNC(=N)N)NC(=O)[C@@H](NC(=O)[C@@H](NC(=O)[C@]1(C)CCCC=CCCC[C@](C)(NC(=O)[C@H](CC(N)=O)NC(=O)[C@H](CCC(N)=O)NC(=O)[C@H](CC(C)C)NC(=O)[C@H](CCCNC(=N)N)NC(=O)[C@H](Cc2ccccc2)NC(=O)[C@H](CC(N)=O)NC(=O)[C@@H](NC(=O)[C@H](CCCNC(=N)N)NC(=O)CCNC(=O)[C@@H](N)Cc2c[nH]c3ccccc23)[C@@H](C)CC)C(=O)N[C@@H]([C@@H](C)CC)C(=O)N[C@@H](CC(=O)O)C(=O)N[C@@H](CCCNC(=N)N)C(=O)N1)[C@@H](C)CC)C(C)C)[C@@H](C)CC)C(=O)N[C@@H](CCC(=O)O)C(=O)N[C@H](C(=O)N[C@@H](CC(N)=O)C(=O)N1CCC[C@H]1C(=O)N[C@@H](CO)C(=O)N[C@H](C(=O)N[C@@H](CC(C)C)C(=O)N[C@@H](CCCNC(=N)N)C(=O)N[C@H](C(=O)N[C@@H](CCCCN)C(N)=O)C(C)C)[C@@H](C)CC)[C@@H](C)O [RFP26] (H-W[βAla]RINFRLQN[S5]IDR[S5]IVRI[Nle]ETNPSILRVK-NH2; staple 11-15)
toxicity in wound healing studies [4]: considerable toxicity

fold lower affinity than the unoxidised peptide [5]: ~5 fold
Molecule: {FITC-monoethylene glycol}-KQEEINFRLQDYIDRIIVAI[Met(O)]ETNPSILEVK [RFP5]

IC50 [6]: > 10 µM | binding result [7]: binds
B1: GST-FIP3 (649–756) (domain or fragment, UniProt O75154 649-756, looked up)
chain: MGLQEYHSRARESELEQEVRRLKQDNRNLKEQNEELNGQIITLSIQGAKSLFSTAFSESLAAEISSVSRDELMEAIQKQEEINFRLQDYIDRIIVAIMETNPSILEVK
notes: Rab11-FIP3 (Class-II FIP), residues 649-756; vector pGEX 6P-1; no cleavage of GST is described; also called FIP3 protein (residues 649–756); source: BL21 cells, purified (glutathione sepharose, Superdex 75 gel filtration)
